Measured values as given in ChEMBL document CHEMBL1124182, “Design, synthesis, and properties of (4S)-7-(4-amino-2-substituted-pyrrolidin-1-yl)quinolone-3-carboxylic acids” (J Med Chem, 1988).
≈ marks a conversion by molar mass, not a printed value.

How the values were obtained:
Klebsiella pneumoniae [1] = test: In vitro Minimum inhibitory concentration against Klebsiella pneumoniae 8045; assay type: functional
Acinetobacter = test: In vitro Minimum inhibitory concentration against Acinetobacter CMX 669; assay type: functional; conditions: Acinetobacter; read-out: MIC
Escherichia coli [2] = test: In vitro Minimum inhibitory concentration against Escherichia coli Juhl; assay type: functional
Mus musculus [3] = test: In vivo efficacy against Staphylococcus aureus 10649, in mouse protection test when administered perorally (po); assay type: functional
Streptococcus agalactiae = test: In vitro Minimum inhibitory concentration against Streptococcus agalactiae CMX 508; assay type: functional
Staphylococcus aureus [4] = test: In vitro Minimum inhibitory concentration against Staphylococcus aureus 45; assay type: functional
Mus musculus [5] = test: In vivo efficacy against Escherichia coli Juhl, in mouse protection tests. when administered perorally (po); assay type: functional
Pseudomonas aeruginosa [6] = test: In vitro Minimum inhibitory concentration against Pseudomonas aeruginosa 5007; assay type: functional
Streptococcus pyogenes = test: In vitro Minimum inhibitory concentration against Streptococcus pyogenes 930; assay type: functional
[7] = test system: Staphylococcus epidermidis; test: In vitro Minimum inhibitory concentration against Staphylococcus epidermidis 3519; assay type: functional
Enterococcus faecium = test: In vitro Minimum inhibitory concentration against Streptococcus faecium ATCC 8043; assay type: functional
Streptococcus equinus = test: In vitro Minimum inhibitory concentration against Streptococcus bovis A5169; assay type: functional
Mus musculus [8] = test: In vivo efficacy against Escherichia coli Juhl, in mouse protection test when administered subcutaneously (sc); assay type: functional
Staphylococcus aureus [9] = test: In vitro Minimum inhibitory concentration against Staphylococcus aureus A5177; assay type: functional
Pseudomonas aeruginosa [10] = test: In vitro Minimum inhibitory concentration against Pseudomonas aeruginosa K799/WT; assay type: functional
Staphylococcus aureus [11] = test: In vitro Minimum inhibitory concentration against Staphylococcus aureus ATCC 6538P; assay type: functional
Staphylococcus aureus [12] = test: In vitro Minimum inhibitory concentration against Staphylococcus aureus CMX 686B; assay type: functional
Mus musculus [13] = test: In vivo efficacy against Staphylococcus aureus 10649, in mouse protection test when administered subcutaneously (sc); assay type: functional
[14] = Partition coefficient (logP); assay type: physicochemical; conditions: octanol/water
[15] = Compound was evaluated for the solubility in Ringer's buffer solution; assay type: ADME; conditions: Ringer's buffer solution; read-out: Solubility
Klebsiella pneumoniae [16] = test: In vitro Minimum inhibitory concentration against Klebsiella pneumoniae 8045
Mus musculus [17] = test: Blood level was evaluated by a disk agar diffusion assay at 0.5 hr when administered at a peroral dose of 25 mg/kg; assay type: functional; conditions: route oral
Escherichia coli [18] = test: Supercoiling inhibition assay using purified DNA gyrase isolated from Escherichia coli H560; assay type: functional; conditions: read-out: I50
Mus musculus [19] = test: Blood level was evaluated by a disk agar diffusion assay at 3.0 hh when administered at a peroral dose of 25 mg/kg; assay type: functional; conditions: route oral
Mus musculus [20] = test: Blood level was evaluated by a disk agar diffusion assay at 24.0 hr when administered at a peroral dose of 25 mg/kg; assay type: functional; conditions: route oral
Mus musculus [21] = test: Blood level was evaluated by a disk agar diffusion assay at 6.0 hr when administered at a peroral dose of 25 mg/kg; assay type: functional; conditions: route oral
Mus musculus [22] = test: Blood level was evaluated by a disk agar diffusion assay at 2.0 hr when administered at a peroral dose of 25 mg/kg; assay type: functional; conditions: route oral
Mus musculus [23] = test: Blood level was evaluated by a disk agar diffusion assay at 1.0 hr when administered at a peroral dose of 25 mg/kg; assay type: functional; conditions: route oral
Staphylococcus aureus [24] = test: In vivo efficacy against Staphylococcus aureus 10649, in mouse protection tests when administered perorally (po); assay type: functional
Staphylococcus aureus [25] = test: In vivo efficacy against Staphylococcus aureus 10649, in mouse protection tests when administered subcutaneously (sc); assay type: functional
Mus musculus [26] = test: In vivo efficacy against Escherichia coli Juhl, in mouse protection tests when administered subcutaneously (sc); assay type: functional
Mus musculus [27] = test: In vivo efficacy against Escherichia coli Juhl, in mouse protection tests when administered perorally (po); assay type: functional
Mus musculus [28] = test: Blood level was evaluated at 6.0 hr when administered at a peroral dose of 25 mg/kg; assay type: functional; conditions: route oral
Mus musculus [29] = test: In vivo efficacy against Escherichia coli Juhl, in mouse protection test when the administered perorally (po); assay type: functional
Mus musculus [30] = test: Blood level was evaluated at 3.0 hh when administered at a peroral dose of 25 mg/kg; assay type: functional; conditions: route oral
Mus musculus [31] = test: Blood level was evaluated at 2.0 hr when administered at a peroral dose of 25 mg/kg; assay type: functional; conditions: route oral
Mus musculus [32] = test: Blood level was evaluated at 1.0 hr when administered at a peroral dose of 25 mg/kg; assay type: functional; conditions: route oral
Mus musculus [33] = test: Blood level was evaluated at 24.0 hr when administered at a peroral dose of 25 mg/kg; assay type: functional; conditions: route oral

| Structure (SMILES) | MIC (Klebsiella pneumoniae [1]) | MIC (Acinetobacter) | MIC (Escherichia coli [2]) | ED50 (Mus musculus [3]) | MIC (Streptococcus agalactiae) | MIC (Staphylococcus aureus [4]) | MIC (Pseudomonas aeruginosa [6]) | MIC (Streptococcus pyogenes) | MIC [7] | MIC (Enterococcus faecium) | MIC (Streptococcus equinus) | ED50 (Mus musculus [8]) | MIC (Staphylococcus aureus [9]) | MIC (Pseudomonas aeruginosa [10]) | MIC (Staphylococcus aureus [11]) | MIC (Staphylococcus aureus [12]) | logP [14] | solubility [15] | Blood level (Mus musculus [17]) | IC50 (Escherichia coli [18]) | other results |
| --- | --- | --- | --- | --- | --- | --- | --- | --- | --- | --- | --- | --- | --- | --- | --- | --- | --- | --- | --- | --- | --- |
| CCC1C[C@H](N)CN1c1cc2c(cc1F)c(=O)c(C(=O)O)cn2-c1ccc(F)cc1F (stereo partly specified) | 0.05 µg/mL (≈ 0.116 µM) | 0.2 µg/mL (≈ 0.464 µM) | 0.1 µg/mL (≈ 0.232 µM) | 2.4 mg/kg | 0.1 µg/mL (≈ 0.232 µM) | 0.1 µg/mL (≈ 0.232 µM) | 6.2 µg/mL (≈ 14.4 µM) | 0.1 µg/mL (≈ 0.232 µM) | 0.1 µg/mL (≈ 0.232 µM) | 0.2 µg/mL (≈ 0.464 µM) | 0.2 µg/mL (≈ 0.464 µM) | 2.4 mg/kg | 0.1 µg/mL (≈ 0.232 µM) | 0.78 µg/mL (≈ 1.81 µM) | 0.05 µg/mL (≈ 0.116 µM) | 0.05 µg/mL (≈ 0.116 µM) |  |  |  |  | ED50 (Mus musculus [5]): 9.6 mg/kg; ED50 (Mus musculus [13]): 0.8 mg/kg |
| N[C@H]1CC(CN2CCCC2)N(c2cc3c(cc2F)c(=O)c(C(=O)O)cn3-c2ccc(F)cc2F)C1 (stereo partly specified) |  |  | 0.78 µg/mL (≈ 1.6 µM) |  | 25 µg/mL (≈ 51.4 µM) | 3.1 µg/mL (≈ 6.37 µM) | 1.56 µg/mL (≈ 3.21 µM) | 25 µg/mL (≈ 51.4 µM) | 3.1 µg/mL (≈ 6.37 µM) | 6.2 µg/mL (≈ 12.7 µM) | 25 µg/mL (≈ 51.4 µM) |  | 3.1 µg/mL (≈ 6.37 µM) | 1.56 µg/mL (≈ 3.21 µM) | 1.56 µg/mL (≈ 3.21 µM) | 1.56 µg/mL (≈ 3.21 µM) | -0.56 | 680 µg/mL (≈ 1400 µM) |  |  | MIC (Klebsiella pneumoniae [16]): 0.39 µg/mL (≈ 0.802 µM) |
| C[C@@H]1C[C@H](N)CN1c1nc2c(cc1F)c(=O)c(C(=O)O)cn2-c1ccc(F)cc1F | 0.39 µg/mL (≈ 0.932 µM) | 0.78 µg/mL (≈ 1.86 µM) | 0.39 µg/mL (≈ 0.932 µM) |  | 6.2 µg/mL (≈ 14.8 µM) | 0.39 µg/mL (≈ 0.932 µM) | 12.5 µg/mL (≈ 29.9 µM) | 1.56 µg/mL (≈ 3.73 µM) | 0.39 µg/mL (≈ 0.932 µM) | 3.1 µg/mL (≈ 7.41 µM) | 6.2 µg/mL (≈ 14.8 µM) |  | 0.39 µg/mL (≈ 0.932 µM) | 3.1 µg/mL (≈ 7.41 µM) | 0.2 µg/mL (≈ 0.478 µM) | 0.2 µg/mL (≈ 0.478 µM) | -0.11 | 340 µg/mL (≈ 813 µM) | 5.3 µg/mL | 7.5 µg/mL (≈ 17.9 µM) | Blood level (Mus musculus [19]): 2.2 µg/mL; Blood level (Mus musculus [20]): 0 µg/mL; Blood level (Mus musculus [21]): 1.1 µg/mL; Blood level (Mus musculus [22]): 3.7 µg/mL; Blood level (Mus musculus [23]): 12.4 µg/mL |
| O=C(O)c1cn(C2CC2)c2cc(N3CCNCC3)c(F)cc2c1=O [CIPROFLOXACIN] | 0.02 µg/mL (≈ 0.0604 µM) | 0.39 µg/mL (≈ 1.18 µM) |  |  | 0.78 µg/mL (≈ 2.35 µM) | 0.78 µg/mL (≈ 2.35 µM) | 0.39 µg/mL (≈ 1.18 µM) |  | 0.78 µg/mL (≈ 2.35 µM) | 0.39 µg/mL (≈ 1.18 µM) | 1.56 µg/mL (≈ 4.71 µM) |  | 0.39 µg/mL (≈ 1.18 µM) | 0.2 µg/mL (≈ 0.604 µM) | 0.2 µg/mL (≈ 0.604 µM) | 0.39 µg/mL (≈ 1.18 µM) |  |  | 1.3 µg/mL | 0.9 µg/mL (≈ 2.72 µM) | ED50 (Staphylococcus aureus [24]): 15.5 mg/kg; ED50 (Staphylococcus aureus [25]): 1.6 mg/kg; ED50 (Mus musculus [26]): 0.2 mg/kg; Blood level (Mus musculus [19]): 0.1 µg/mL; Blood level (Mus musculus [20]): 0 µg/mL; Blood level (Mus musculus [21]): 0 µg/mL; Blood level (Mus musculus [22]): 0.3 µg/mL; Blood level (Mus musculus [23]): 0.8 µg/mL; ED50 (Mus musculus [27]): 1.9 mg/kg |
| C[C@H]1C[C@H](N)CN1c1nc2c(cc1F)c(=O)c(C(=O)O)cn2-c1ccc(F)cc1F | 0.02 µg/mL (≈ 0.0478 µM) | 0.1 µg/mL (≈ 0.239 µM) | 0.02 µg/mL (≈ 0.0478 µM) | > 2.5 mg/kg | 0.2 µg/mL (≈ 0.478 µM) | 0.05 µg/mL (≈ 0.12 µM) | 0.78 µg/mL (≈ 1.86 µM) | 0.2 µg/mL (≈ 0.478 µM) | 0.05 µg/mL (≈ 0.12 µM) | 0.1 µg/mL (≈ 0.239 µM) | 0.2 µg/mL (≈ 0.478 µM) | 0.6 mg/kg | 0.05 µg/mL (≈ 0.12 µM) | 0.78 µg/mL (≈ 1.86 µM) | 0.02 µg/mL (≈ 0.0478 µM) | 0.02 µg/mL (≈ 0.0478 µM) | -0.2 | 150 µg/mL (≈ 359 µM) | 5.9 µg/mL | 0.6 µg/mL (≈ 1.43 µM) | Blood level (Mus musculus [28]): 1.3 µg/mL; ED50 (Mus musculus [29]): 2.7 mg/kg; Blood level (Mus musculus [30]): 2.8 µg/mL; Blood level (Mus musculus [31]): 3.3 µg/mL; Blood level (Mus musculus [32]): 3.2 µg/mL; Blood level (Mus musculus [33]): 0.2 µg/mL; ED50 (Mus musculus [13]): 0.9 mg/kg |
